What was measured:
BMMCs = experiment: IgE+Ag-activated BMMCs: cytokine release (ELISA) and RNA (RT-PCR); type: cell-based, murine
Procedure: Mast cells were differentiated from murine bone marrow as has been described. In brief, marrow was expunged from the femurs and tibias of female mice. Cultures were maintained in complete MC/9 medium containing recombinant murine IL-3 (25 ng/mL, Peprotech) for 4-6 weeks prior to use. Peritoneal MCs (PMCs) were expanded from peritoneal washes with MC/9 medium supplemented with IL-3 (25 ng/mL) and SCF (Peprotech, 10 ng/mL) for 21 days. Purity of BMMCs and PMCs was confirmed to be greater than 95% (FIG. 8A). To initiate signaling via the FcεRI, MCs were loaded with IgE (1.0 μg/ml, clone SPE-7, Sigma) for a minimum of 1 h then crosslinked with dinitrophenyl-human serum albumin (DNP-HSA, 100 ng/mL or as indicated). NKA (either LifeTein (Summerset, NJ) or Phoenix Pharmaceuticals (Burlingham, CA)) stock solutions were prepared in tissue culture grade water (100 μM) and stored at -20° C. for a maximum of 30 days. Glyburide (Cayman Chemical) was prepared in DMSO then diluted in PBS. Calpain activity was detected from cell-free supernatants using the Calpain-Glo Protease Assay (Promega). Supernatants were incubated with substrate for 10 min prior to luminescent detection. In some experiments, glyburide or vehicle (0.1% DMSO) were added to cells 10 min prior to Ag. ELISA kits from eBioscience (IL-13), BioLegend, (TNF and IL-10) or RayBiotech (NKA) and used in accord with the manufacturer's recommendations. […] Total RNA was isolated from either MCs or murine ear tissue 3 h hours after NKA injection. Tissue was homogenized in Navy RINO tubes (Next Advance) in a Bullet Blender Storm (Next Advance). RNA was extracted per standard methods with Trizol (Invitrogen). cDNA was reversed transcribed with the Quantitech Reverse Transcription Kit (Qiagen). PCR products were amplified with Fast SybrGreen (ABI) on a StepOne Plus Cycler ([…]) using the following primers: TNF […] NO: 5), TNF […] NO: 6); IL13 […] NO: 7), IL13 […] NO: 8); IL10 […] NO: 9); IL10 […] NO: 10); Bactin […] NO: 11); Bactin […] NO: 12). Data are presented as 2^-ΔΔCT using f-actin as the housekeeping gene and normalizing to either untreated cells or naïve control mice.

calpain [1] = experiment: Calpain activity in cell-free supernatants of activated BMMCs; type: cell-based, murine
Procedure: (§1) Calpain activity was detected from cell-free supernatants using the Calpain-Glo Protease Assay (Promega). Supernatants were incubated with substrate for 10 min prior to luminescent detection. In some experiments, glyburide or vehicle (0.1% DMSO) were added to cells 10 min prior to Ag. ELISA kits from eBioscience (IL-13), BioLegend, (TNF and IL-10) or RayBiotech (NKA) and used in accord with the manufacturer's recommendations.

atopic dermatitis = experiment: MC903-induced atopic dermatitis model; type: in vivo, murine; conditions: MC903 4 nmol/ear daily, glyburide 2.5 mg/kg, i.p.
Procedure: Atopic dermatitis was induced by treating ears with MC903 (4 nmol/ear, daily). The contralateral ear was treated with the vehicle for MC903. Mice were treated with either glyburide (2.5 mg/kg, i.p., daily) or vehicle control. (A) Ear thickness was measured daily. (B-C) On day 11, mice were euthanized and ear tissue embedded sectioned and stained with (B) H & E to evaluate cellular infiltration or (C) Avidin (AvRho) to evaluate mast cells. […] (B-C) show representative images from 3-7 mice over two experiments.

inflammasome = conditions: cited from earlier work
STAT5 = STAT5 phosphorylation (flow cytometry) and nuclear localization (ImageStream) in BMMCs; type: cell-based, murine
Procedure: To detect phospho-Stat5Tyr694, MCs were loaded with IgE in serum and cytokine-free RPMI. Neurokinin A (1.0 μM) or vehicle control and DNP-HSA (100 ng/mL) were added simultaneously. At the indicated time, cells were fixed with 2.0% paraformaldehyde for 10 minutes then permeabilized with 90% methanol overnight at −20° C. Cells were stained with monoclonal anti-phospho-Stat5 Tyr694 Alexa Fluor 647 (clone C71E5, Cell Signaling Technology) for 60 minutes at room temperature. Nuclear co-localization was evaluated using ImageStream (Amnis). Activated BMMCs were fixed with 2.0% paraformaldehyde, permeabilized with Permeabilization Wash Buffer containing 3% FBS and 0.1% Triton X-100. and stained with anti-STAT5B Alexa Fluor 488 (clone EPR16671, Abcam) and DAPI. Data were analyzed using the Co-localization Wizard in IDEAS (v6.2). Co-localization for single cells expressing STAT5B and DAPI was quantified as Similarity Score, a log-transformed Pearson's correlation coefficient for the pixel intensity of corresponding images.

calpain [2] = experiment: Calpain activity in cell-free supernatants of activated PMCs; type: cell-based, murine; conditions: IgE+Ag with or without NKA for 60 min
Procedure: as §1

IL10 mRNA = IL10 mRNA in ear skin 3 h after NKA injection; type: in vivo, mouse
Procedure: Total RNA was isolated from either MCs or murine ear tissue 3 h hours after NKA injection. Tissue was homogenized in Navy RINO tubes (Next Advance) in a Bullet Blender Storm (Next Advance). RNA was extracted per standard methods with Trizol (Invitrogen). cDNA was reversed transcribed with the Quantitech Reverse Transcription Kit (Qiagen). PCR products were amplified with Fast SybrGreen (ABI) on a StepOne Plus Cycler ([…]) using the following primers: TNF […] NO: 5), TNF […] NO: 6); IL13 […] NO: 7), IL13 […] NO: 8); IL10 […] NO: 9); IL10 […] NO: 10); Bactin […] NO: 11); Bactin […] NO: 12). Data are presented as 2^-ΔΔCT using f-actin as the housekeeping gene and normalizing to either untreated cells or naïve control mice.

[3] = tested on: connective tissue MCs from the skin, the heart, or peritoneal MCs; conditions: cited from earlier work
MCs = conditions: previous studies; cited from earlier work
[4] = IL-10 KO BMMCs (absence of autocrine IL-10)
[5] = overnight activation with IgE+Ag in the presence of NKA

## COc1ccc(Cl)cc1C(=O)NCCc1ccc(S(=O)(=O)NC(=O)NC2CCCCC2)cc1 [glyburide, reference compound]
BMMCs; glyburide and NKA (1000 nM), BMMCs or PMCs, 20-24 h
  NKA-mediated inhibition with added glyburide: did not further increase
BMMCs; glyburide, 20-24 h in culture
  detectible levels of IL-10: increased
  levels of IL-13: decreased
  levels of TNF: decreased
Calpain [1]; increasing concentrations of glyburide 10 min prior to activation, supernatants 30 min after activation
  calpain activity: reduced
Atopic dermatitis
  cutaneous inflammation: reduces cutaneous inflammation
inflammasome
  inflammasome: inhibits

## Neurokinin A [NKA]
BMMCs; 60 min after activation
  IL10 RNA: increased
  IL13 transcription: inhibited
  TNF transcription: inhibited
BMMCs; [4]
  IL-13 release: did not inhibit
  TNF release: did not inhibit
BMMCs; [5]
  IL-13 release: inhibited
  TNF release: inhibited
BMMCs; overnight culture with NKA
  IL-10 protein in supernatants: significant increase
STAT5; 30 and 60 minutes following IgE crosslinking
  nuclear translocation of STAT5B (imaging flow cytometry): significantly reduced
STAT5; 15 minutes after crosslinking IgE with Ag, NKA 1.0 μM
  pTyr695-STAT5 detected by flow cytometry: reduced
Calpain [1]; IgE+Ag with or without NKA for 60 min
  extracellular calpain activity: significantly downregulated
Calpain [2]
  calpain activity in supernatants: significantly diminished
IL10 mRNA; MC-deficient (Mcpt5Cre^+×Rosa26DTA^+) mice
  IL10 mRNA in the skin: no difference
IL10 mRNA; MC-sufficient (Mcpt5Cre^−×Rosa26DTA^+) mice
  IL10 mRNA levels in the skin: significantly increased
[3]
  histamine release: not
MCs
  effect on MCs (β-hexosaminidase or histamine release as readouts): no effect
